Values after ≈ are worked out from the molar mass of the structure shown.
Columns and labels:
San Angelo Virus = assay: microbe, parasite or virus in culture; format: cell-based
Simian Rotavirus = assay: Inhibition of viral cytopathic effect (visual CPE and neutral red), simian rotavirus in MA104 cells; format: cell-based; settings: for EC50: Rotavirus A, EXPT EV/RtC2
[1] = tested on: Venezuelan Equine Encephalitis; assay: microbe, parasite or virus in culture; format: cell-based, Venezuelan equine encephalitis virus; settings: for EC50: Venezuelan equine encephalitis virus, EXPT EV/VEC4
[2] = tested on: African green monkey kidney (Vero) cells
in vitro [3] = settings: African green monkey
in vitro [4] = settings: African green monkey; remark: listed apart in the source
in vitro [5] = settings: African green monkey; remark: listed apart in the source
Herpes Simplex Type I = assay: Inhibition of viral cytopathic effect (visual CPE and neutral red), HSV-1 in MRC-5 cells; format: cell-based, type 1 herpes (HSV-1); settings: for EC50: EXPT EV/H1C2
in vitro [6] = settings: human
Vaccinia Virus = assay: microbe, parasite or virus in culture; format: cell-based; settings: for EC50: Orthopoxvirus vaccinia, EXPT EV/VC2
in vitro [7] = settings: African green monkey; remark: listed apart in the source

In the case of `NC(=O)c1ncn([C@@H]2O[C@H](CO)[C@@H](O)[C@H]2O)n1` [Ribavirin, ribavirin], the COMMENT (San Angelo Virus) is reported as “Very good activity”, the EC50 (San Angelo Virus; San Angelo virus, Vero) is reported as 30 µg/mL (≈ 123 µM) and the EC50 (Simian Rotavirus; MA104, neutral red assay) is reported as 56 µg/mL (≈ 229 µM). For the same molecule, the EC50 (Simian Rotavirus; MA104, visual CPE) was 18 µg/mL (≈ 73.7 µM), the COMMENT (Simian Rotavirus; neutral red assay) was “Slight activity” and the COMMENT (Simian Rotavirus; visual) was “Moderate activity”. The EC50 ([1]; MA104, neutral red assay, neutral red data questionable) was greater than 100 µg/mL, the EC50 ([1]; MA104, visual CPE) was 7.6 µg/mL (≈ 31.1 µM) and the COMMENT ([1]; visual) was “Very good activity”. The CC50 [2] was 530 µg/mL (≈ 2170 µM), the CC50 (in vitro [3]) was 560 µg/mL (≈ 2290 µM) and the CC50 (in vitro [4]) was greater than 100 µg/mL. It also gave a CC50 (in vitro [5]) greater than 100 µg/mL.
In the case of `Nc1nc2c(ncn2COCCO)c(=O)[nH]1` [Acyclovir, acyclovir], the EC50 (Herpes Simplex Type I; Human alphaherpesvirus 1, MRC5, neutral red assay) is reported as 0.4 µg/mL (≈ 1.78 µM), the EC50 (Herpes Simplex Type I; Human alphaherpesvirus 1, MRC5, visual CPE) is reported as 0.6 µg/mL (≈ 2.66 µM) and the COMMENT (Herpes Simplex Type I; neutral red assay) is reported as “Excellent activity”. The COMMENT (Herpes Simplex Type I; visual) was “Excellent activity” and the CC50 (in vitro [6]) was greater than 100 µg/mL.
In the case of `Nc1ccn(C[C@@H](CO)OCP(=O)(O)O)c(=O)n1` [HPMPC, cidofovir], the EC50 (Vaccinia Virus; CV-1, neutral red assay) is reported as 1.7 µg/mL (≈ 6.09 µM), the EC50 (Vaccinia Virus; CV-1, visual CPE) is reported as 5.4 µg/mL (≈ 19.3 µM) and the COMMENT (Vaccinia Virus; neutral red assay) is reported as “Excellent activity”. The COMMENT (Vaccinia Virus; visual) was “Very good activity” and the CC50 (in vitro [7]) was greater than 100 µg/mL.

— patent US20030203410A1, “Gestational agents which modulate cell proliferation” (priority 1999, published 2003)
